From patent US10512667B2, “Compositions and methods for treating conditions related to adrenocortical activity and/or excessive steroid production” (The Regents of the University of Michigan, priority 2017, dated 2019)
“Also recorded” adds a separate entry of the source.

How the values were obtained:
adrenal cortex = conditions: WHHL rabbits; cited from earlier work
MDR1 = molecular target: T1, MDR1 (Homo sapiens, UniProt P08183); conditions: cited from earlier work
T1 construct: measured the accumulation of doxorubicin in H295R cells; endogenous in cells; host or cells: H295R adrenocortical carcinoma cells

H295R cells [1] = assay: Cellular ATP level (CellTiter-Glo); conditions: for ATP level, compound alone: serum-containing medium;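 as to all read-outs here: ATP quantified by luminescence after lysing the cells in CellTiter-Glo reagent, with compound exposure at 37 °C under 5% CO2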
H295R cells [2] = assay: Resazurin reducing potential; type: cell-based; conditions: 32 μM ATR-101 with 2 mM MβCD
Method: FIG. 4F: […] The cells were cultured with DMSO vehicle or 32 μM ATR-101 alone, or together with 2 mM MβCD. Resazurin fluorescence intensity was measured using a microplate reader at the indicated times at 37 C. The background signal of wells without resazurin was subtracted. […] DMSO control, *P<0.05).

H295R cells [3] = assay: Visualization of cholesterol levels by filipin III binding; type: cell-based
Method: The cells were seeded in 96-well ibiTreat μ-Plates and allowed to adhere for 48 h prior to the start of each experiment. Cholesterol was detected in fixed cells by incubating with 100 μg/ml filipin III at 37 C for 2 h. […] Images were captured using either a 4× or a 60× objective. Cholesterol esterification was visualized by culturing the cells with 1 μM NBD-cholesterol for 2 h following incubation with the indicated compounds. […] Images were captured using either a 20× or a 60× objective.
The medium was removed and immediately replaced with 100 μl of 4% paraformaldehyde and the cells were fixed at room temperature for 20 min. The cells were washed twice with 200 μl PBS. […] The fixed cells were incubated with filipin III at 37 C in the dark for 2 h.

H295R cells [4] = assay: Cell morphology by phase contrast microscopy; type: cell-based; conditions: 30 h
Method: FIG. 4E: […] The cells were cultured with DMSO vehicle (upper images) or with 40 μM ATR-101 (lower images) alone (left images), or in combination with 1.5 mM MβCD (middle images), or in combination with 40 μM cholesterol (right images). Cell morphology was visualized by phase contrast microscopy using a 10× objective. The images are representative of 5 fields under each set of culture conditions. The scale bars denote 100 μm.

H295R cells [5] = assay: Caspase 3/7 activity (Apo-ONE); type: cell-based; conditions: for caspase 3/7 activity, compound alone: serum-containing medium
Method: The samples were incubated for 18 h at room temperature in the dark. The fluorescence was measured using a SpectraMax M5 microplate reader with a 0.5 s acquisition time.

H295R cells [6] = assay: Cholesterol crystallization and extracellular cholesterol associated with cells; type: cell-based; conditions: compound in combination with ATR-101
Method: To quantify cholesterol crystallization, experiments were conducted that measured the total extracellular cholesterol that was associated with the cells. After culturing cells with the indicated compounds, the culture medium was removed. Medium lacking cholesterol was added to the cells, and the extracellular cholesterol that was released into the wash medium was collected after 30 seconds. To establish if the cholesterol that was released from the cells was exported by ABCA1, the wash step was performed in parallel using media with and without 50 μM glibenclamide, which inhibits ABCA1 activity. The total amount of cell-associated cholesterol that was released into the wash medium was measured using a fluorometric enzyme-linked assay (Cayman Chemical). Cholesterol esters were hydrolyzed using cholesterol esterase. Cholesterol was oxidized by cholesterol oxidase, producing hydrogen peroxide. The hydrogen peroxide was reacted with 10-acetyl-3,7-dihydroxyphenoxazine (ADHP) in the presence of horseradish peroxidase to produce resorufin. Resorufin fluorescence was measured using 555 nm exitation and 590 nm emission wavelengths in a SpectraMax M5 microplate reader (Molecular Devices).
The medium was removed and replaced with 50 μl serum-free medium supplemented with 5 μg/mL apo-AI (without or with 50 μM glyburide to detect ABCA1 transporter-dependent efflux) for either 30 sec or 1 h at 37 C in 5% CO2 atmosphere. After the indicated time, the supernatant, was transferred to a new 96-well plate and a fluorometric-base cholesterol detection assay cocktail was added.

[7] = H295R cells cultured with the compound together with ATR-101, 4 h
[8] = H295R cells cultured with the compound together with ATR-101, 24 h
[9] = H295R cells, serum-free, 50 μM each glibenclamide, benzamil, zosuquidar, 10 μM PD129337, 4 mM MβCD

Cc1ccc2oc(CN(Cc3ccccc3)C(=O)Nc3c(F)cc(F)cc3F)c(-c3ccc(Cl)cc3)c2c1 [FR145237]
adrenalytic effect in LDL deficient animals (adrenal cortex): resistant

O[C@@H](COc1cccc2ncccc12)CN1CCN([C@@H]2c3ccccc3[C@@H]3[C@H](c4ccccc42)C3(F)F)CC1 [zosuquidar]
MDR1 inhibition (MDR1): selectively inhibits MDR1

methyl-β-cyclodextrin [MβCD]
effect on ATP depletion by ATR-101 (H295R cells [1]; [7]): prevented ATP depletion; also recorded: suppressed the depletion of ATP
effect on ATP depletion by ATR-101 (H295R cells [1]; [8]): prevented ATP depletion
effect on ATP depletion by ATR-101 in combination with ABC transporter inhibitors, substrates or U18666A (H295R cells [1]; H295R cells, 2 mM MβCD): suppressed ATP depletion
ATP level, compound alone (H295R cells [1]; H295R cells, 4 h): little effect
ATP level, compound alone (H295R cells [1]; H295R cells, 24 h): little effect
effect on ATP depletion by ATR-101 (H295R cells [1]; H295R cells, serum-free medium containing apoA-I, together with ATR-101): suppressed ATP depletion
effect on the increase in resazurin fluorescence caused by ATR-101 (H295R cells [2]): not inhibited
effect on cholesterol accumulation caused by ATR-101 (H295R cells [3]; H295R cells cultured with the compound together with ATR-101, 4 h or 24 h): prevented cholesterol accumulation; also recorded: blocked the effects of ATR-101 on cholesterol accumulation; also recorded: did not have a higher level of filipin III binding to the plasma membrane
cholesterol level (filipin III binding), compound alone (H295R cells [3]; H295R cells, serum-free medium containing apoA-I, 4 h): reduced the basal level of cholesterol
effect on cholesterol accumulation caused by ATR-101 (H295R cells [3]; H295R cells, serum-free medium, 100 μM ATR-101 with 4 mM MβCD, 4 h): suppressed the cholesterol accumulation
cholesterol level with combinations of ABC transporter inhibitors (H295R cells [3]; [9]): reduced the cholesterol level
effect on the changes in cell morphology caused by ATR-101 (H295R cells [4]; 40 μM ATR-101 with 1.5 mM MβCD or 40 μM cholesterol): remained flat and adherent for at least 30 h; also recorded: prevented
cell morphology, compound alone (H295R cells [4]; phase contrast): little effect
effect on caspase 3/7 activation by ATR-101 (H295R cells [5]; [7]): prevented ATP depletion and caspase activation; also recorded: suppressed
effect on caspase 3/7 activation by ATR-101 (H295R cells [5]; [8]): prevented ATP depletion and caspase activation
caspase 3/7 activity, compound alone (H295R cells [5]; H295R cells, 4 h): little effect
caspase 3/7 activity, compound alone (H295R cells [5]; H295R cells, 24 h): little effect
effect on caspase activation by ATR-101 (H295R cells [5]; H295R cells, serum-free medium, 100 μM ATR-101 with 4 mM MβCD): suppressed ATP depletion and caspase activation
caspase 3/7 activity with combinations of ABC transporter inhibitors (H295R cells [5]; [9]): suppressed
effect on cholesterol crystallization in cells cultured with ATR-101 (H295R cells [6]): did not produce crystals; also recorded: blocked
